# Data: PMC6934184, “Selective DNA-PKcs inhibition extends the therapeutic index of localized radiotherapy and chemotherapy” (The Journal of Clinical Investigation, 2019)
# Target: T1, RET G691S (Homo sapiens, UniProt P07949, G691S)
# T1 construct: purchased Thermo Fisher Scientific (Life Technologies) SelectScreen
# Assay: SelectScreen LanthaScreen
# Type: binding
# Conditions: read-out: % displacement
# How it was run: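 NU5455 was profiled across the SelectScreen Broad panel of kinase activity and binding assays. Z'LYTE reactions such as CSF1R ran at apparent Km ATP, while the Adapta CAMK1 assay used ATP listed as 10. Values are given as percent.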
# T1 sequence (P07949 29-1114 G691S): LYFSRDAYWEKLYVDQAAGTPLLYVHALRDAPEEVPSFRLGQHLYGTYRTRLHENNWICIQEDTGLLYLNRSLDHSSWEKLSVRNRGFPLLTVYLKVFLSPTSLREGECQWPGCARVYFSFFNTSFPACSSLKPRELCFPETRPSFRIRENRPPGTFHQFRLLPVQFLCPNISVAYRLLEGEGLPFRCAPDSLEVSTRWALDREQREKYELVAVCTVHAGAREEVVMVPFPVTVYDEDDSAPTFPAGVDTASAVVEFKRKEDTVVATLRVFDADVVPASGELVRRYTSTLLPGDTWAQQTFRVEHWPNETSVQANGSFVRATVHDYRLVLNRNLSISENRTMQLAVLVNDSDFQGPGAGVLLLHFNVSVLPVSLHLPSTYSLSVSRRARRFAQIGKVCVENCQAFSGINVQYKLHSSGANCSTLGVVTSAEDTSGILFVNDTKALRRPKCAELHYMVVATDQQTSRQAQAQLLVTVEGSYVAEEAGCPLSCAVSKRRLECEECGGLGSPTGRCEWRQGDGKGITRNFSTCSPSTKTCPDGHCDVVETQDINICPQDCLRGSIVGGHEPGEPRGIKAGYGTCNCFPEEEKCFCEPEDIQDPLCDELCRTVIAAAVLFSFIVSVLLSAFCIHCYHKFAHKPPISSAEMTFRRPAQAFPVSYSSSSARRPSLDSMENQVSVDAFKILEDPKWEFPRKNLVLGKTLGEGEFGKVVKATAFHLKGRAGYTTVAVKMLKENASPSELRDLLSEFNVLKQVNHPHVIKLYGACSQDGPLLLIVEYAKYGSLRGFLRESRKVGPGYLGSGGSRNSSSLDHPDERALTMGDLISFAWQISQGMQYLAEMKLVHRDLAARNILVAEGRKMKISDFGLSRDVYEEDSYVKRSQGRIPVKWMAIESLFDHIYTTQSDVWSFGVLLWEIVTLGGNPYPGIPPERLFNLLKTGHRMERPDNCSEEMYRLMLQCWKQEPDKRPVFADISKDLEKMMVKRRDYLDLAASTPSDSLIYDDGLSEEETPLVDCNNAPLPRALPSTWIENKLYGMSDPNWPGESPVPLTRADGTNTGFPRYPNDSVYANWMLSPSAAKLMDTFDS
compound,measurement,value
CN(C(=O)CN1CCOCC1)c1ccc2sc3c(-c4cccc5c(=O)cc(N6CC7CCC(C6)O7)oc45)cccc3c2c1 [NU5455],inhibition at 1 µM,-1.8%
